{
  "source": "paper PMC2962915",
  "about": "“The –SH Protection Method for Determining Accurate Kd Values for Enzyme-Coenzyme Complexes of NAD^+-Dependent Glutamate Dehydrogenase and Engineered Mutants: Evidence for Nonproductive NADPH Complexes” (Enzyme Research, 2010)",
  "target": "T1, clostridial glutamate dehydrogenase (GDH) ([Clostridium] symbiosum, UniProt P24295)",
  "T1 construct": "no tag mentioned",
  "T1 sequence (P24295 2-450)": "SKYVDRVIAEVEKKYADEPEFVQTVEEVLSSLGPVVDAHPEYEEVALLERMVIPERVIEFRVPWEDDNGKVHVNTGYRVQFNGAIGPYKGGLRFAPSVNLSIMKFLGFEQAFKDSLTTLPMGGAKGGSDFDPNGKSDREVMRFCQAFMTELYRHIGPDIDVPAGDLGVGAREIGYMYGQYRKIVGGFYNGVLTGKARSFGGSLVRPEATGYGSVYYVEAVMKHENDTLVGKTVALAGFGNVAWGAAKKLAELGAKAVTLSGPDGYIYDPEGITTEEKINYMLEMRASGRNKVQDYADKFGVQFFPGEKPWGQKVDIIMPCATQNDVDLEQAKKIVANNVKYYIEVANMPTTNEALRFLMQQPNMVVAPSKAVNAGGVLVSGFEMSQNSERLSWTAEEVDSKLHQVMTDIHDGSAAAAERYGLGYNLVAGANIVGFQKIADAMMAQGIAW",
  "assay": "protection against DTNB inactivation",
  "format": "biochemical",
  "settings": "0.1 M potassium phosphate, pH 7.0, 25°C, 200 μM DTNB, competitive with DTNB at coenzyme site, Kd corrected for DTNB",
  "description": "protection against DTNB inactivation on clostridial glutamate dehydrogenase (GDH)",
  "note": "Like-named read-outs stand apart in the source and are kept apart here.",
  "data": [
    {"smiles": "NC(=O)C1=CN([C@@H]2O[C@H](COP(=O)(O)OP(=O)(O)OC[C@H]3O[C@@H](n4cnc5c(N)ncnc54)[C@H](OP(=O)(O)O)[C@@H]3O)[C@@H](O)[C@H]2O)C=CC1", "note": "[NADPH]", "values": [
      {"measurement": "Kd", "setting": "read-out: K dNADPH", "value": "23 ± 1", "unit": "µM"}
    ]},
    {"smiles": "NC(=O)C1=CN([C@@H]2O[C@H](COP(=O)(O)OP(=O)(O)OC[C@H]3O[C@@H](n4cnc5c(N)ncnc54)[C@H](O)[C@@H]3O)[C@@H](O)[C@H]2O)C=CC1", "note": "[NADH]", "values": [
      {"measurement": "Kd", "setting": "read-out: K dNADH", "value": "24 ± 1", "unit": "µM"}
    ]},
    {"smiles": "NC(=O)c1ccc[n+]([C@@H]2O[C@H](COP(=O)(O)OP(=O)(O)OC[C@H]3O[C@@H](n4cnc5c(N)ncnc54)[C@H](O)[C@@H]3O)[C@@H](O)[C@H]2O)c1", "note": "[NAD^+]", "values": [
      {"measurement": "Kd", "setting": "read-out: K dNAD+", "value": "335 ± 17", "unit": "µM"}
    ]}
  ]
}
